12 compounds from patent US7560450B2, “Xanthine derivatives, the preparation thereof and their use as pharmaceutical compositions” (Boehringer Ingelheim Pharma GmbH & Co., KG, priority 2002, dated 2009) can be followed below.

Each structure is given as a SMILES string.

T1 sequence (P27487 whole entry): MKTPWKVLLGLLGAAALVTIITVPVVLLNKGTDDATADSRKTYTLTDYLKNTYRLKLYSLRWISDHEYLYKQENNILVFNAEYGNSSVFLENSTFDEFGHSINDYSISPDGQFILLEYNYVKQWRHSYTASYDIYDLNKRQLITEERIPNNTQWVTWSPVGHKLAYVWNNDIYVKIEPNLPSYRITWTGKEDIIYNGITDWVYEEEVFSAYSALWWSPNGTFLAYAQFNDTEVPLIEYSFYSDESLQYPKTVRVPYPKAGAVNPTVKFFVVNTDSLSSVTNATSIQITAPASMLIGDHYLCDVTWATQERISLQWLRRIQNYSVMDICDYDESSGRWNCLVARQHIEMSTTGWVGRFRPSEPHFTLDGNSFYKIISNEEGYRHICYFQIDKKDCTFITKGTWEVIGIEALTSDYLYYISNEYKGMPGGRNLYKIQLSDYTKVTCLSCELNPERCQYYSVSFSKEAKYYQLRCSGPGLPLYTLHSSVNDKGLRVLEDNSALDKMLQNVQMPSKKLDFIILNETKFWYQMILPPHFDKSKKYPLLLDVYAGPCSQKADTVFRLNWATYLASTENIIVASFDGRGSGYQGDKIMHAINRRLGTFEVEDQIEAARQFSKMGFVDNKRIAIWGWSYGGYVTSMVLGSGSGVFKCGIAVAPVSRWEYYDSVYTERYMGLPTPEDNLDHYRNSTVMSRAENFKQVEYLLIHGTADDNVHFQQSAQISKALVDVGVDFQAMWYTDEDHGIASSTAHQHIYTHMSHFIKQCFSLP

One data set concerns the target T1, DPP-IV (Homo sapiens, UniProt P27487).
T1 construct: an extract of human colon carcinoma cell line Caco-2 is used as the DPP IV source; endogenous in cells; host or cells: Caco-2 (human colon carcinoma), differentiated to induce DPP-IV expression; Nonidet-P40 solubilised extract
The data set is described as follows: DPP-IV assay with Caco-2 cell extract as DPP IV source. To be noted: extract of human colon carcinoma cell line Caco-2 as DPP IV source; substrate AFC 100 μM; 60 minutes at ambient temperature; 11 measuring points; read-out: DPP IV inhibition IC50. It is filed as biochemical. The method, then: The differentiation of the cells in order to induce the DPP-IV expression was carried out as described by Reiher et al. in an article entitled “Increased expression of intestinal cell line Caco-2”, which appeared in Proc. Natl. Acad. Sci. Vol. 90, pages 5757-5761 (1993). The cell extract was obtained from cells solubilised in a buffer (10 mM Tris HCl, 0.15 M NaCl, 0.04 t.i.u. aprotinin, 0.5% Nonidet-P40, pH 8.0) by centrifuging at 35,000 g for 30 minutes at 4° C. (to remove cell debris).
The DPP-IV assay was carried out as follows:
50 μl substrate solution (AFC; AFC is amido-4-trifluoromethylcoumarin), final concentration 100 μM, were placed in black microtitre plates. 20 μl of assay buffer (final concentrations 50 mM Tris HCl pH 7.8, 50 mM NaCl, 1% DMSO) was pipetted in. The reaction was started by adding 30 μl of solubilised Caco-2 protein (final concentration 0.14 μg of protein per well). The test substances to be investigated were typically added prediluted in 20 μl, and the volume of assay buffer was then reduced accordingly. The reaction was carried out at ambient temperature, incubating for 60 minutes. Then the fluorescence was measured in a Victor 1420 Multilabel Counter, the excitation wavelength being 405 nm and the emission wavelength being 535 nm. Blank readings (corresponding to 0% activity) were obtained in mixtures without any Caco-2 protein (volume replaced by assay buffer), control values (corresponding to 100% activity) were obtained in mixtures with no substance added. The potency of the test substances in question, expressed as IC50 values, was calculated from dosage/activity curves consisting of 11 measuring points in each case.
As a reminder, the IC50 is the midpoint of a concentration-inhibition curve. Turning to `CC#CCn1c(N2CCC[C@@H](N)C2)nc2c1c(=O)n(CC(=O)NCc1ccccc1)c(=O)n2C` [1(1), 1-[(benzylaminocarbonyl)methyl]-3-methyl-7-(2-butyn-1-yl)-8-[(R)-3-amino-piperidin-1-yl]-xanthine], the IC50 was 0.046 µM.
Take `CC#CCn1c(N2CCC[C@@H](N)C2)nc2c1c(=O)n(CC(=O)Nc1ccccc1)c(=O)n2C` [1(2), 1-[(phenylaminocarbonyl)methyl]-3-methyl-7-(2-butyn-1-yl)-8-[(R)-3-amino-piperidin-1-yl]-xanthine]: the IC50 stood at 0.026 µM.
Consider `CC#CCn1c(N2CCC[C@@H](N)C2)nc2c1c(=O)n(CC(=O)OCc1cccnc1)c(=O)n2C` [1(4), 1-{[(pyridin-3-yl)methoxycarbonyl]methyl}-3-methyl-7-(2-butyn-1-yl)-8-[(R)-3-amino-piperidin-1-yl]-xanthine], for which the IC50 is 0.013 µM.
Turning to `CC#CCn1c(N2CCC[C@@H](N)C2)nc2c1c(=O)n(CC(=O)Nc1cccnc1)c(=O)n2C` [1(5), 1-{[(pyridin-3-yl)aminocarbonyl]methyl}-3-methyl-7-(2-butyn-1-yl)-8-[(R)-3-amino-piperidin-1-yl]-xanthine], the IC50 amounted to 0.007 µM.
As for `CC#CCn1c(N2CCC[C@@H](N)C2)nc2c1c(=O)n(CC(=O)Nc1ccccc1C)c(=O)n2C` [1(6), 1-{[(2-methyl-phenyl)aminocarbonyl]methyl}-3-methyl-7-(2-butyn-1-yl)-8-[(R)-3-amino-piperidin-1-yl]-xanthine], the IC50 is 0.722 µM.
In the case of `CC#CCn1c(N2CCC[C@@H](N)C2)nc2c1c(=O)n(CC(=O)Nc1ccccc1[N+](=O)[O-])c(=O)n2C` [1(7), 1-{[(2-nitro-phenyl)aminocarbonyl]methyl}-3-methyl-7-(2-butyn-1-yl)-8-[(R)-3-amino-piperidin-1-yl]-xanthine], the IC50 stood at 0.004 µM.
With `CC#CCn1c(N2CCCC(N)C2)nc2c1c(=O)n(CC(=O)Nc1ccc(C#N)cc1)c(=O)n2C` (stereo not shown) [1(8), 1-{[(4-cyano-phenyl)aminocarbonyl]methyl}-3-methyl-7-(2-butyn-1-yl)-8-(3-amino-piperidin-1-yl)-xanthine], the IC50 is 0.042 µM.
For `CC#CCn1c(N2CCC[C@@H](N)C2)nc2c1c(=O)n(CC(=O)Nc1ccccc1OC)c(=O)n2C` [1(9), 1-{[(2-methoxy-phenyl)aminocarbonyl]methyl}-3-methyl-7-(2-butyn-1-yl)-8-[(R)-3-amino-piperidin-1-yl]-xanthine], the IC50 is 0.032 µM.
On the same count and under the same terms, under `CC#CCn1c(N2CCCC(N)C2)nc2c1c(=O)n(CC(=O)COc1ccccc1)c(=O)n2C` (stereo not shown) [1(10), 1-(2-oxo-3-phenoxy-propyl)-3-methyl-7-(2-butyn-1-yl)-8-(3-amino-piperidin-1-yl)-xanthine] stands 0.286 µM; under `CC#CCn1c(N2CCCC(N)C2)nc2c1c(=O)n(CC(=O)NCc1ccccc1N)c(=O)n2C` (stereo not shown) [1(11), 1-[(2-amino-benzylaminocarbonyl)methyl]-3-methyl-7-(2-butyn-1-yl)-8-(3-amino-piperidin-1-yl)-xanthine], 0.028 µM; under `CC#CCn1c(N2CCC[C@@H](N)C2)nc2c1c(=O)n(CC(=O)Nc1ccccn1)c(=O)n2C` [Example 1(3), 1-{[(pyridin-2-yl)aminocarbonyl]methyl}-3-methyl-7-(2-butyn-1-yl)-8-[(R)-3-amino-piperidin-1-yl]-xanthine], 0.004 µM.
Take `CC#CCn1c(N2CCC[C@@H](N)C2)nc2c1c(=O)n(CC(=O)OCc1ccccc1)c(=O)n2C` [Example 1, 1-[(benzyloxycarbonyl)methyl]-3-methyl-7-(2-butyn-1-yl)-8-[(R)-3-amino-piperidin-1-yl]-xanthine]: the IC50 came out at 0.027 µM.

A further data set concerns rats. The data set is described as follows: Tolerability after oral administration to rats (behaviour). Type of data set: in vivo. To be noted: 10 mg/kg.
Consider `CC#CCn1c(N2CCC[C@@H](N)C2)nc2c1c(=O)n(CC(=O)Nc1ccccn1)c(=O)n2C` [Example 1(3), 1-{[(pyridin-2-yl)aminocarbonyl]methyl}-3-methyl-7-(2-butyn-1-yl)-8-[(R)-3-amino-piperidin-1-yl]-xanthine], for which the “changes in the animals' behaviour” value is listed as “no changes in the animals' behaviour could be detected”.
